Test results reported in patent US10894777B2, “TG2 inhibitor piperazine compounds and uses thereof” (UNIVERSITY OF OTTAWA, priority 2016, dated 2021).

Legend:
TG2 = target: T1, TG2 (Homo sapiens, UniProt P21980); test: BODIPY FL GTP-γ-S binding assay; details: NC9 120 μM, VA4 40 μM, VA5 40 μM; plus 0.5 mM CaCl2; 1 μM GTP-γ-S FL BODIPY
T1 sequence (P21980 1-687): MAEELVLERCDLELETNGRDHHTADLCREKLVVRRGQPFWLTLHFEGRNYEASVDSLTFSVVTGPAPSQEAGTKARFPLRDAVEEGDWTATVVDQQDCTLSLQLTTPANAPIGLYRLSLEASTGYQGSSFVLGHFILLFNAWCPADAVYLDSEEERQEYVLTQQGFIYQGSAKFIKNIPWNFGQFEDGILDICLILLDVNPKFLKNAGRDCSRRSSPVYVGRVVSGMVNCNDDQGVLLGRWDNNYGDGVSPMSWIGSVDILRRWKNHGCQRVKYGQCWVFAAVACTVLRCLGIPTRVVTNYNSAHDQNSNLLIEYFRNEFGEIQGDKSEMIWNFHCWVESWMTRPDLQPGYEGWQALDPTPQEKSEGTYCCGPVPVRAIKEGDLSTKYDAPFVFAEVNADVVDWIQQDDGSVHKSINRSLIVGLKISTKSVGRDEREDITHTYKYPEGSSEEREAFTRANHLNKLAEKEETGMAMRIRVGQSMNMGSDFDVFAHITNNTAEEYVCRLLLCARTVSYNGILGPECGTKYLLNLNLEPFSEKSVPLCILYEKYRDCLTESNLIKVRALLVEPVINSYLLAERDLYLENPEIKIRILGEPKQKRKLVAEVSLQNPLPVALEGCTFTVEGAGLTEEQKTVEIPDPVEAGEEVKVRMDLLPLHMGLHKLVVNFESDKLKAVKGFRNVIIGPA
Method: BODIPY FL GTP-γ-S binding assay. GTP binding was performed using a similar method as reported previously (McEwen, D. P. et al., Anal. […] TG2 (9 μg) was incubated with BODIPY GTP-γ-S at 25° C. for 10 min in 100 mM MOPS (pH=7.0) and 5 mM MgCl2 followed by addition of H2O, inhibitor alone or inhibitor plus 0.5 mM CaCl2. […] After 45 min incubation, fluorescence was then measured on a microplate reader (ex: 490 nm, em: 520 nm).

[1] = tested on: SCC-13, HaCaT, A431, TU159, HNSCC3 cells; test: Spheroid formation, matrigel invasion and migration assays in five cell lines (Example 11); assay type: cell-based, human; details: FIGS. 38-42
Method: SCC13 cells were grown for one week as monolayer in spheroid media; cells were harvested with 0.25% trypsin and plated with 2 mL of spheroid media at 15,000 cells per well in a 6-well dish. Cells were counted on day 0 and then treated with the indicated concentration of the indicated compound. Control was 0.1% DMSO. Cells were counted using a cell counter, 2 wells per treatment on each day. Values shown are mean±SEM, n=1.
(§1) HaCaT cells were grown for one week as a monolayer in spheroid media. Cells were harvested with 0.25% trypsin and plated with 2 mL of spheroid media at 15,000 cells per well in a 6-well dish. Cells were counted on day 0 and then treated with the indicated concentration of the indicated compound. Control was 0.1% DMSO. Cells were counted using a cell counter, 2 wells per treatment on each day. Values shown are mean±SEM, n=1.
as §1, with “A431” for “HaCaT”
TU159 cells were harvested with 0.25% trypsin and plated with 2 mL of spheroid media at 40,000 cells per well in a 6 well low-attachment plate. The cells were grown as spheroids for 8 days. On day 8 the spheroids were treated with the indicated concentration of the indicated compound. Control was 0.1% DMSO. The same 2 wells per treatment were counted on each day. Values shown are mean±SEM, n=1.
as §1, with “HNSCC3” for “HaCaT”, “The same” for “Cells were counted using a cell counter,”, “treatment were counted” for “treatment”, “n=1. […]” for “n=1.”

SCC-13 cells = test: Migration (scratch wound closure) assay, SCC-13 cells; assay type: cell-based, human; details: for cell migration (scratch wound closure): 0-12 h
Method: (§2) Migration assay. SCC13-Control-shRNA or SCC13-TG2-shRNA2 cells (2×10^6) were plated in 10 cm dishes and grown as monolayer cultures in spheroid medium until confluent. A 10 μl pipette tip was used to prepare areas void of cells and the dishes were washed to remove the dislodged cells. Images were collected, at 0-18 h after the scratch using the 10× objective, and the width of the opening was measured as a function of time as an index of cell migration potential.
as §2, with “Cells (2 million)” for “SCC13-Control-shRNA or SCC13-TG2-shRNA2 cells (2×10^6)”, “The ability of the cells to close the scratch wounds was monitored” for “Images were collected,”, “(Adhikary, G. et al., PLoS One 8:e84324, 2013).” for “potential.”

| SMILES | GTP binding to TG2 (TG2) | spheroid formation, matrigel invasion and migration [1] | cell migration (scratch wound closure) (SCC-13 cells) | cell migration (SCC-13 cells; 20 μM, 0-18 h) |
| --- | --- | --- | --- | --- |
| C=CC(=O)NCCCC[C@H](NC(=O)OCc1ccccc1)C(=O)NCCOCCOCCNS(=O)(=O)c1cccc2c(N(C)C)cccc12 [NC9] | inhibit GTP binding to TG2 almost completely | inhibit spheroid formation, matrigel invasion and migration | inhibited cell migration | reduced |
| C=CC(=O)NCCCC[C@H](NC(=O)OCc1ccccc1)C(=O)N1CCN(S(=O)(=O)c2cccc3c(N(C)C)cccc23)CC1 [VA4, (S)-benzyl(6-acrylamido-1-(4-((5-(dimethylamino)naphthalen-1-yl)sulfonyl)piperazin-1-yl)-1-oxohexan-2-yl)carbamate] | inhibit GTP binding to TG2 almost completely | inhibit spheroid formation, matrigel invasion and migration | inhibited cell migration |  |
| C=CC(=O)NCCCC[C@H](NC(=O)OCc1ccccc1)C(=O)N1CCN(C(=O)c2cc3ccc(O)cc3oc2=O)CC1 [VA5, (S)-Benzyl(6-acrylamido-1-(4-(7-hydroxy-2-oxo-2H-chromene-3-carbonyl)piperazin-1-yl)-1-oxohexan-2-yl)carbamate] | inhibit GTP binding to TG2 almost completely | inhibit spheroid formation, matrigel invasion and migration | inhibited cell migration |  |
